This note sets out measurements from US11707479B2, “Combination formulation of two antiviral compounds” (priority 2013, dated 2023).

Where two headings read alike, the source gives them in different places.

Data set [1] can be described thus: PK drug-drug interaction between SOF and Compound I. Type of data set: in vivo, human. The conditions noted are these: for AUCinf % GLSM Ratio (SOF + Compound I/SOF) (90% CI) / AUClast % GLSM Ratio (SOF + Compound I/SOF) (90% CI) / Cmax % GLSM Ratio (SOF + Compound I/SOF) (90% CI): SOF 400 mg + Compound I 150 mg vs SOF 400 mg.
In a further data set the test system is HCV RNA. Nature of the data set: Emax PK/PD modeling of sofosbuvir dose. Set-up: species or system Hepatitis C virus. The conditions noted are these: 400 mg sofosbuvir dose, Emax model. As to the method:
The sofosbuvir dose selected for the tablet formulation is 400 mg once daily. Support for the 400 mg sofosbuvir dose can be derived from Emax PK/PD modeling with early virological and human exposure data which also supports the selection of a 400 mg sofosbuvir dose over others tested.
(§1) The mean sofosbuvir major metabolite AUCtau for the 400 mg sofosbuvir dose is associated with approximately 77% of the maximal HCV RNA change from baseline achievable as determined by this model, a value which is on the cusp of the plateau of the exposure-response sigmoidal curve. In a sigmoidal Emax model, there is a relatively linear exposure-response relationship in the 20 to 80% maximal effect range. Therefore, given that sofosbuvir exposure with 200 mg tablets appears dose-proportional with single doses up to 1200 mg, doses below 400 mg are expected to yield considerable reductions in the magnitude of HCV RNA change from baseline.

Data set [2] can be described thus: Sofosbuvir single dose exposure, 200 mg tablets. The data set is classed as in vivo, human. Conditions: single doses up to 1200 mg. As to the method:
as §1

The subject of another data set is genotype 1 HCV. Nature of the data set: Sofosbuvir 400 mg vs 200 mg once daily with additional HCV therapeutics for 24 weeks. Type of data set: in vivo, Hepatitis C virus. The method, then: (§2) Safety and tolerability appeared similar across both dose levels. In addition, when sofosbuvir 400 mg once daily plus other HCV therapeutics were given to genotype 2 or 3 HCV infected patients, 100% SVR24 was observed.

For another data set, the system named is genotype 2 or 3 HCV. Nature of the data set: Sofosbuvir 400 mg once daily plus other HCV therapeutics, SVR24. Type of data set: in vivo, Hepatitis C virus. Conditions: genotype 2 or 3 HCV infected patients. As to the method: as §2
The nature of data set [3]: Single and multiple oral doses of Compound I: pharmacokinetics. The conditions noted are these: human, in vivo.
A short description of data set [4]: Food effect on Compound I solid dispersion as single agent. The data set is classed as in vivo, human. Conditions: Compound I 100 mg.
Another data set has as its system genotype 1-6 HCV. Nature of the data set: Compound I 3-day monotherapy study. The data set is classed as in vivo, Hepatitis C virus.
A short description of data set [5]: Spray dry feed solution solvent evaluation: solubility. Type of data set: physicochemical. Conditions: Ethanol, methanol, acetone, and dichloromethane. The method, then: The feed solution was initially evaluated for appropriate solvent with regard to solubility, stability, and viscosity. […] Ethanol and methanol-based feed stocks were assessed for preparation ease and spray dried at a range of inlet and outlet temperatures to assess the robustness of the spray dry process. Both solvents gave rapid dissolution of Compound I and copovidone.

Data set [6] can be described thus: Chemical stability in ethanolic feed solution. Type of data set: physicochemical.
The mark [7] stands for this setting: SOF 400 mg + Compound I 150 mg, GLSM.
Where [8] appears, read: SOF 400 mg single dose alone, GLSM.
Where [9] appears, read: human, in vivo, SOF 400 mg + Compound I 150 mg, GLSM.
[10] abbreviates: SOF 400 mg + Compound I 150 mg vs Compound I 150 mg.

Turning to `C[C@H](NP(=O)(O)OC[C@H]1O[C@@H](n2ccc(=O)[nH]c2=O)[C@](C)(F)[C@@H]1O)C(=O)O` [SOF metabolite I], in [1], the “AUCinf % GLSM Ratio (SOF + Compound I/SOF) (90% CI)” value (from here on “AUCinf % GLSM Ratio … (90% CI)”) was 179.42 (165.03, 195.06) %; the “AUClast % GLSM Ratio (SOF + Compound I/SOF) (90% CI)” value (“AUClast % GLSM Ratio … (90% CI)” for short) is listed as 182.35 (167.52, 198.50) %; the “Cmax % GLSM Ratio (SOF + Compound I/SOF) (90% CI)” value is on record as 161.68 (145.27, 179.94) %; the “increase in AUC when SOF coadministered with Compound I” value is on record as “approximately 1.8 fold”. In [1], the “increase in Cmax when SOF coadministered with Compound I” value was “approximately 1.6 fold”. Further, in data set [1] (setting [7]), the AUCinf is 3455.70 ng·h/mL, the AUClast was determined as 3394.32 ng·h/mL and the Cmax stood at 736.88 ng/mL. In data set [1] (setting [8]), the AUCinf worked out at 1926.09 ng·h/mL, the AUClast amounted to 1861.41 ng·h/mL and the Cmax is 455.77 ng/mL.

With `C[C@@]1(F)[C@H](O)[C@@H](CO)O[C@H]1n1ccc(=O)[nH]c1=O` [SOF metabolite II], in data set [1], the “AUCinf % GLSM Ratio … (90% CI)” value is 116.32 (110.99, 121.90) %; the “AUClast % GLSM Ratio … (90% CI)” value is recorded as 112.86 (107.90, 118.05) %; the “Cmax % GLSM Ratio (SOF + Compound I/SOF) (90% CI)” value was 64.17 (58.45, 70.44) %. In data set [1] (setting [7]), the AUCinf was 13,774.96 ng · h/mL, the AUClast is recorded as 12,610.86 ng · h/mL and the Cmax is given as 693.62 ng/mL. In addition, in [1] (setting [8]), the AUCinf is listed as 11,842.52 ng · h/mL, the AUClast is reported as 11,173.87 ng · h/mL and the Cmax was found to be 1080.97 ng/mL.

As to `CC(C)OC(=O)[C@H](C)N[P@](=O)(OC[C@H]1O[C@@H](n2ccc(=O)[nH]c2=O)[C@](C)(F)[C@@H]1O)Oc1ccccc1` [sofosbuvir, (S)-isopropyl 2-(((S)-(((2R,3R,4R,5R)-5-(2,4-dioxo-3,4-dihydropyrimidin-1(2H)-yl)-4-fluoro-3-hydroxy-4-methyltetrahydrofuran-2-yl)methoxy)(phenoxy)phosphoryl)amino)propanoate, reference compound], in [1], the “AUCinf % GLSM Ratio … (90% CI)” value was 237.77 (214.27, 263.85) %; the “AUClast % GLSM Ratio … (90% CI)” value is reported as 238.10 (214.62, 264.16) %; the “Cmax % GLSM Ratio (SOF + Compound I/SOF) (90% CI)” value is reported as 181.06 (149.43, 219.38) %; the “increase in AUC when SOF coadministered with Compound I” value is listed as about 2.4 fold. Besides, the “increase in Cmax when SOF coadministered with Compound I” value in data set [1] is listed as “approximately 1.8 fold”. This molecule also showed an AUCinf in [1] (setting [8]) of 1159.50 ng·h/mL. For the same molecule, in [1] (setting [9]), the AUC(0-inf) amounted to 2760 ng·h/mL and the AUC(0-t) amounted to 2750 ng·h/mL. In data set [1] (human, in vivo, SOF 400 mg + Compound I 150 mg, GLSM, read-out: Cmax), the Cmax amounted to 1590 ng/mL. The same molecule yielded an AUC(0-t) in data set [1] (human, in vivo, SOF 400 mg single dose alone, GLSM) of 1150 ng·h/mL. The Cmax in [1] (human, in vivo, SOF 400 mg single dose alone, GLSM, read-out: Cmax) came out at 880 ng/mL. Further, the “fraction of the maximal HCV RNA change from baseline achievable, associated with mean major metabolite AUCtau” value in the data set on HCV RNA is “approximately 77%”. Further, in data set [2], the “dose proportionality of exposure” value is reported as “dose-proportional”. Also, the “Safety and tolerability across both dose levels” value with genotype 1 HCV (400 mg vs 200 mg once daily) is “similar”. In addition, the “SVR rates, 400 mg once daily compared to 200 mg once daily” value in the data set with genotype 1 HCV (genotype 1 HCV infected patients, with additional HCV therapeutics for 24 weeks) is listed as “higher SVR rates”. Also, the SVR24 in the data set with genotype 2 or 3 HCV was determined as 100%.

Turning to `COC[C@H]1C[C@@H](c2ncc(-c3ccc4c(c3)COc3cc5c(ccc6nc([C@@H]7CC[C@H](C)N7C(=O)[C@@H](NC(=O)OC)C(C)C)[nH]c65)cc3-4)[nH]2)N(C(=O)[C@H](NC(=O)OC)c2ccccc2)C1` [Compound I, methyl {(2S)-1-[(2S,5S)-2-(9-{2-[(2S,4S)-1-{(2R)-2-[(methoxycarbonyl)amino]-2-phenylacetyl}-4-(methoxymethyl)pyrrolidin-2-yl]-1H-imidazol-5-yl}-1,11-dihydroisochromeno[4′,3′ 6,7]naphtho[1,2-d]imidazol-2-yl)-5-methylpyrrolidin-1-yl]-3-methyl-1-oxobutan-2-yl}carbamate], the CL/F in data set [3] (5 mg) is recorded as 58,398.0 mL/h; in data set [3] (50 mg) it was 19,188.4 mL/h; in [3] (100 mg) it was 24,617.9 mL/h; in [3] (450 mg), 53,676.4 mL/h. Moreover, the Ctau in data set [1] (Compound I 150 mg multiple doses alone, GLSM) came out at 101.09 ng/mL; in data set [1] (setting [7]) it was 118.90 ng/mL. The “AUCtau % GLSM Ratio (SOF + Compound I/Compound I) (90% CI)” value in data set [1] (setting [10]) is on record as 111.71 (107.54, 116.04) %. In addition, the “Cmax % GLSM Ratio (SOF + Compound I/Compound I) (90% CI)” value in [1] (setting [10]) was 105.94 (101.86, 110.20) %. The “Ctau % GLSM Ratio (SOF + Compound I/Compound I) (90% CI)” value in data set [1] (setting [10]) was 117.61 (111.94, 123.57) %. Besides, the AUC in data set [1] (human, plasma, oral, Compound I 150 mg multiple doses alone, GLSM) is 7280 ng·h/mL; in data set [1] (human, plasma, oral, SOF 400 mg + Compound I 150 mg, GLSM), 8140 ng·h/mL. The Cmax was determined as 932 ng/mL in [1] (human, plasma, oral, Compound I 150 mg multiple doses alone, GLSM, read-out: Cmax) and 988 ng/mL in data set [1] (human, plasma, oral, SOF 400 mg + Compound I 150 mg, GLSM, read-out: Cmax). Further, the “AUCinf % GLSM Ratio (Fed/Fasted)” value is given as 86.30% in data set [4] (HFM) and 124.72% in data set [4] (Light Breakfast). In addition, the “AUClast % GLSM Ratio (Fed/Fasted)” value in data set [4] (HFM) is listed as 86.02%; in [4] (Light Breakfast), 124.84%. Also, the “Cmax % GLSM Ratio (Fed/Fasted)” value in data set [4] (HFM) came to 75.02%; in data set [4] (Light Breakfast), 134.89%. Besides, the “activity against genotype 1-6 HCV” value in the data set on genotype 1-6 HCV is recorded as “potent activity”. In addition, the “solubility in feed solvent” value in data set [5] is “excellent solubility”. The chemical stability entry in data set [6] is given as “good chemical stability”.

The Cmax is the peak of the concentration-time curve. In general, AUC(0-inf) refers to the area under the concentration-time curve extrapolated to infinity. The term AUC(0-t) denotes the area under the concentration-time curve up to a stated or last time point. Usually AUC stands for the area under the concentration-time curve, a measure of exposure.
